# Experimental data published in US9249098B2 (priority 2012, dated 2016).
# Where two headings read alike, the source gives them in different places.
# How the values were obtained:
# [1] = Acute toxicity in mice (LD50); conditions: both sexes, mouse, in vivo; CD-1 mice, dosed orally (PO), 7-day acute toxicity
# Experimental: Animal toxicological tests. 7-day acute toxicity evaluation was done for selected compounds of this invention on mice and rats. Male and female CD-1 mice (25-30 grams) or SD rats (150-240 grams) were used. The animals were acclimated for 1 week prior to the experiment. The test compounds were dissolved in saline and were dosed orally (PO). Five groups (3 doses plus 1 vehicle and 1 naïve) and 10 mice per group (half male and half female) were used for each compound. All animals were fasted overnight before study. After dosing, animals were placed individually in soft-bedding cages without cage covers. Animal behavioral changes were continuously monitored for 4 hours including autonomic abnormalities (salivation, lacrimation, piloerection, yawning, palpebral closures), neuromuscular abnormalities (posture, gait, fasciculation, convulsions), stereotypical behaviors (sleep, alert, hyper/hypo-activity, slow patterned, fast patterned, restricted, dyskinetic-reactive signs etc.) and lethality. Observations for general health, mortality and moribundity were conducted twice daily after 24 hours. All animals surviving the 7-day observation period were sacrificed by carbon dioxide asphyxiation. Gross necropsies were performed on all animals sacrificed including examinations of main organs and tissue (lung, liver, kidney, heart, intestine, brain).
# Acute toxicity for selected compounds of this invention was measured in mice according to the procedure illustrated in the embodiments. Male and female CD-1 mice (n=2-5/gender/compound dose, 25-32 grams) were from Shanghai Sino-British SIPPR/BK Lab Animal Ltd. Table 4 lists toxicology study observations for selected compounds.
# [2] = biological target: T1, acetylcholinesterase (AChE) (Electrophorus electricus, UniProt O42275); assay: biochemical; conditions: room temperature, pH 8, acetylthiocholine iodide substrate; read-out: IC50, inhibition of AChE enzyme activity
# T1 construct: purchased Sigma C2888
# T1 sequence (O42275 24-633): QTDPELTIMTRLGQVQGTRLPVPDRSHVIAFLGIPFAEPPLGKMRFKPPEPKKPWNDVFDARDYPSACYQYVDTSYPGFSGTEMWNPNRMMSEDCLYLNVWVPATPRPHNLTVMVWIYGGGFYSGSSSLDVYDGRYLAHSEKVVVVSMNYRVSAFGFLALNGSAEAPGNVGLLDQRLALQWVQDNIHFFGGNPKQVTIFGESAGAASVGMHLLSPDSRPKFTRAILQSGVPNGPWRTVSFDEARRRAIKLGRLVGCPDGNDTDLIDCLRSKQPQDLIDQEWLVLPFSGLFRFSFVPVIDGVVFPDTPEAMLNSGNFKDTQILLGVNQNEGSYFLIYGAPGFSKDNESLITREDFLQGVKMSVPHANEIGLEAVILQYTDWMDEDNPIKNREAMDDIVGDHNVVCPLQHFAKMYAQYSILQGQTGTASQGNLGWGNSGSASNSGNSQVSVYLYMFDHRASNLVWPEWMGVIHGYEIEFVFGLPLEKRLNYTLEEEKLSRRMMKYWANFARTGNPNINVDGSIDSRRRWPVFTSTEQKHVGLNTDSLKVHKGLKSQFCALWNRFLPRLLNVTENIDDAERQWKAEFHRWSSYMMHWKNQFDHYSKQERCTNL
# Experimental: Enzymatic assay. […] The purified/synthesized compounds or compound mixtures were tested. Assay kit was from Invitrogen. AChE enzyme was from Sigma or prepared from human erythrocyte. Acetylcholine and other reagents and buffers were from Sigma. The assay solution consisted of 0.1 M phosphate buffer pH 8, 0.5 mM 5,5′-dithiobis (2-nitrobenzoic acid) (DTNB, Ellman's reagent), 0.01 unit acetylcholinesterase (Sigma Cat. No. C2888), and 0.5 mM acetylthiocholine iodide (ATCI) as the substrate. Test compounds were added to the assay solution and pre-incubated with the enzyme for 5 min at room temperature before addition of the substrate. […] Duplicate sampling was made for each sample. Test compound inhibition to enzyme activity was calculated relative to the positive control without presence of test compound. Negative controls were samples without enzyme.
# Experimental procedures were described in the embodiments of this invention.
# [3] = in vivo; conditions: male, Sprague-Dawley, plasma, rat, read-out: T½ (terminal half life) (converted)
# [4] = in vivo; conditions: male, Sprague-Dawley, plasma, rat
# Experimental: Pharmacokinetics (PK) measurement. […] A total of 6 male experimental SD rats, approximately 8 weeks of age (180-250 g body weight) were used. For intravenous bolus injection (IV), the animals were placed in a polycarbonate restraint device and dosed via the tail vein. For oral dose (PO), the animals were dosed via oral gavage. […] The plasma samples were extracted by protein precipitation using 4 volume of CH3CN containing fixed concentration of internal standard compound (IS). The concentrations of analyte in plasma were determined using a high performance liquid chromatography/mass spectrometry (HPLC/MS/MS) method (Shimadzu LC-10ADVP and a Leap autosampler, Thermo Hypersil C18, 50 mm×2.1 mm, Mobile phase A: 0.1% formic acid; B: MeCN, Elution rate: 500 μL/min, Column temperature: 25° C., Injection volume: 10 μL, reverse phase elution from 10% organic to 90% organic in 5 min, Applied Biosystems API3000 triple-quadrupole instrument with a Turbo Ions Spray interface). The data acquisition and data processing were done using Analyst 1.4 software.
# Experimental animal used were male Sprague-Dawley rats from Shanghai Sino-British SIPPR/BK Lab Animal Ltd, approximately 8 weeks of age (180-250 g body weight).
# [5] = IV (intravenous), read-out: F (bioavailability)
# [6] = PO (oral), read-out: F (oral bioavailability)
# [7] = SC (subcutaneous), read-out: F (bioavailability)
SMILES,LD50 at 7 day [1] [mg/kg],IC50 [2] [nM],half-life ([3]; IV (intravenous)) [h],half-life ([3]; PO (oral)) [h],half-life ([3]; SC (subcutaneous)) [h],"bioavailability [4, 5] [%]","bioavailability [4, 6] [%]","bioavailability [4, 7] [%]"
"COc1cc2c(cc1OC)C(=O)C(CC1(F)CCN(Cc3ccccc3)CC1)C2 (stereo not drawn) [IV-4, 2-((1-benzyl-4-fluoropiperidin-4-yl)methyl)-5,6-dimethoxy-2,3-dihydro-1H-inden-1-one]",30,1.04,–,–,–,–,–,–
"COc1cc2c(cc1OC)C(=O)C(F)(CC1(F)CCN(Cc3ccccc3)CC1)C2 (stereo not drawn) [IV-8, 2-((1-benzyl-4-fluoropiperidin-4-yl)methyl)-2-fluoro-5,6-dimethoxy-2,3-dihydro-1H-inden-1-one]",> 45,9.07,8.5,12.7,6.8,100,37.2,70.5
"COc1cc2c(cc1OC)C(=O)C(F)(CC1(F)CCN(Cc3ccc(F)cc3)CC1)C2 (stereo not drawn) [IV-11, 2-fluoro-2-((4-fluoro-1-(4-fluorobenzyl)piperidin-4-yl)methyl)-5,6-dimethoxy-2,3-dihydro-1H-inden-1-one]",> 50,28.2,3.1,11.8,7.9,100,28.2,100
